Publication PMC10961402, “Safety, tolerability, pharmacokinetics and pharmacokinetic-pharmacodynamic modeling of cetagliptin in patients with type 2 diabetes mellitus” (Frontiers in Endocrinology, 2024)
Read-outs that look alike come from different tables or passages of the source.

Legend:
[1] = Preliminary efficacy evaluation (FPG, 2 h PPG, HbA1c, GA); type: in vivo, human; settings: patients with T2DM
Protocol: Blood samples for determination of fasting plasma glucose (FPG) and 2 hour postprandial plasma glucose (2 h PPG) were collected on day -2, day 7 and day 14. Additionally, blood samples for determination of glycated Hemoglobin A1C (HbA1c) and glycated Albumin (GA) were collected on day -2 and day 14. The changes of the above indexes relative to pre-treatment baseline (day -2) were evaluated and compared to investigate the preliminary efficacy of investigational product.

[2] = system: plasma active GLP-1; parameters: method as in PMID 34965609; settings: healthy subjects, cited from earlier work
[3] = target: T1, plasma DPP-4 activity (Homo sapiens, UniProt P27487); assay: Plasma DPP-4 inhibition relative to baseline (fluorescent method, Gly-Pro-7-amide-4-methylcoumarin); type: in vivo; settings: patients with T2DM; for DPP-4 inhibition TRmax,ss / DPP-4 inhibition TRmax: median (range)
T1 construct: from tissue; host or cells: human plasma (K2-EDTA blood from T2DM patients)
T1 sequence (P27487 39-766 limits assumed): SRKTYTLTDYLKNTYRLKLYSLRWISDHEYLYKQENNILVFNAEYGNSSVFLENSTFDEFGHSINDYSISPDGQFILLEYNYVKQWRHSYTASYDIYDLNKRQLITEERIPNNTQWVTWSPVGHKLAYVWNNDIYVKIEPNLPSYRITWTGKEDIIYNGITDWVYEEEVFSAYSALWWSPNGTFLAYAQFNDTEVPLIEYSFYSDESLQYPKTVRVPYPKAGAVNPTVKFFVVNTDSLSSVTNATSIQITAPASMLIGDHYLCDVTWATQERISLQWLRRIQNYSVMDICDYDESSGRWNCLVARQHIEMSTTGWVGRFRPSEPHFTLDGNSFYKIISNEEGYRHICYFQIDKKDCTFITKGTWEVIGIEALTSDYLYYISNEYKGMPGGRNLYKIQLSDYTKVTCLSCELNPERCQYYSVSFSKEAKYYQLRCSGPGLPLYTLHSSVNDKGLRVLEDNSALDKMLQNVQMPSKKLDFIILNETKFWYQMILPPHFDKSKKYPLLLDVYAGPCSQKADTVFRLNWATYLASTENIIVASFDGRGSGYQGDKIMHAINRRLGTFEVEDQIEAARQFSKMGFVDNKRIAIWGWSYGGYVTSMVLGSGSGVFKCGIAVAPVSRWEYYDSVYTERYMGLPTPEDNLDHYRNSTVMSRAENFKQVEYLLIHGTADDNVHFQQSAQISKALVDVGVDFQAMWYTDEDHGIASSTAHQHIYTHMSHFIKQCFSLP
Protocol: Blood samples for DPP-4 activity determination were collected at the same time points as for PK. 1 mL blood samples were collected into blood-collecting tubes containing K2-EDTA. The tubes were placed on ice until centrifugation. The blood samples were centrifuged at 2-8°C, 1500 g for 10 min within 1 hour after blood collection. After centrifugation, the supernatant were evenly divided into two aliquots and stored at -80 ± 10°C. The plasma DPP-4 activity was determined using a fluorescent method with the substrate Gly-Pro-7-amide-4-methylcoumarin. A range of 3-400 µM was covered by the linear calibration.
The degree of inhibition of DPP-4 enzyme activity relative to baseline (DPP-4 inhibition, %) after administration was calculated as the following equation:
DPP−4 inhibition (%)=(1−DPP−4 activity/DPP−4 activity,Baseline)×100

[4] = system: serum DPP-4 activity; parameters: method as in PMID 22686547; settings: Zucker Diabetic Fatty rats; preclinical studies (data not published); cited from earlier work
[5] = Safety and tolerability assessments (adverse events); type: in vivo, human; settings: patients with T2DM
Protocol: Safety and tolerability were evaluated by monitoring adverse events (AEs), laboratory tests (including blood routine, urine routine, stool routine, blood biochemical test and coagulation function), vital signs, physical examination, 12-lead electrocardiogram and other indicators. AEs were monitored and collected throughout the study. Descriptive analysis of the type and intensity of AEs were conducted according to NCICTC AE5.0.

[6] = target: T2, DPP-4 (Homo sapiens, UniProt P27487); assay: Population PK/PD model (Sigmoid-Emax, DPP-4 inhibition); type: in vivo
T2 construct: from tissue; host or cells: human plasma (K2-EDTA blood from T2DM patients)
T2 sequence (P27487 39-766 limits assumed): as above
From the text: As a result of data with an absolute value of CWRES greater than 5 being excluded, only 554 blood concentrations of cetagliptin were included in development of the PopPK/PD model. A direct-effect model was used to build the PK/PD model; and the model formula was as follows:
DPP−4 inhibition (%)=Emax*C^γ/(EC50γ+C^γ)

[7] = system: glucose, insulin, C-peptide, and glucagon; assay: Oral glucose tolerance test (OGTT): glucose, insulin, C-peptide, glucagon; type: in vivo, human; parameters: change of AUEC0-3 h relative to baseline for insulin (OGTT) / change of AUEC0-3 h relative to baseline for C-peptide (OGTT) / change of AUEC0-3 h relative to baseline for glucagon (OGTT) / C-peptide AUEC0-t (OGTT) / glucagon AUEC0-t (OGTT) / insulin AUEC0-t (OGTT): unit not given here; settings: patients with T2DM; for change of AUEC0-3 h relative to baseline for C-peptide (OGTT) / change of AUEC0-3 h relative to baseline for glucagon (OGTT) / change of AUEC0-3 h relative to baseline for insulin (OGTT) / change of AUEC0-3 h relative to baseline for plasma glucose (OGTT): day 15 vs day -1
Protocol: To assess the impact of investigational products on glucose, insulin, C-peptide, and glucagon, OGTT tests were conducted on day -1 and day 15 following a fasting period of more than 8 hours. Subjects received a 75 g oral glucose dose and blood samples (1.5 mL for glucose, 3.5 mL for insulin and C-peptide, 2 mL for glucagon) were collected at 0, 0.167, 0.5, 1, 1.5, 2, and 3 h after ingestion of glucose. The PD parameters (AUEC0-t) for glucose, insulin, C-peptide, and glucagon were calculated by using drug effect module of non-compartmental method with Phoenix WinNonlin.

[8] = cetagliptin group (50 or 100 mg, n=20) / sitagliptin group (100 mg, n=8), 14 days
[9] = final model estimate, patients with T2DM
[10] = 50 mg group, day -1 (baseline before dosing)
[11] = 100 mg group, day -1 (baseline before dosing)
[12] = day 15 after 50 mg once daily for 14 days
[13] = day 15 after 100 mg once daily for 14 days

## C[C@@H]1c2cnc(C(F)(F)F)n2CCN1C(=O)C[C@H](N)Cc1cc(F)c(F)cc1F.O=P(O)(O)O [Cetagliptin, cetagliptin]
[1]; 50 mg once daily, day 7
  change of FPG relative to baseline (day -2): 0.49 mmol/L
[1]; 50 mg once daily, day 7, 2 h after breakfast
  mean change value of 2h postprandial blood glucose concentration compared with baseline: -1.54 ± 2.25 mmol/L
[1]; 50 mg once daily, day 7, 2 h after lunch
  mean change value of 2h postprandial blood glucose concentration compared with baseline: -0.29 ± 2.34 mmol/L
[1]; 50 mg once daily, day 7, 2 h after supper
  mean change value of 2h postprandial blood glucose concentration compared with baseline: -1.30 ± 2.50 mmol/L
[1]; 50 mg once daily, day 14
  change of FPG relative to baseline (day -2): 0.56 mmol/L
  change of GA relative to baseline (day -2): 0.53%
  decrease of HbA1c compared with baseline: 0.47%
[1]; 50 mg once daily, day 14, 2 h after lunch
  mean change value of 2h postprandial blood glucose concentration compared with baseline: -0.66 ± 2.26 mmol/L
[1]; 50 mg once daily, day 14, 2 h after supper
  mean change value of 2h postprandial blood glucose concentration compared with baseline: -2.64 ± 2.07 mmol/L
[1]; 50 mg once daily, day 14 after dinner
  decrease of 2 h PPG compared with baseline: 2.64 mmol/L
[1]; 100 mg once daily, day 7
  change of FPG relative to baseline (day -2): -0.11 mmol/L
[1]; 100 mg once daily, day 7, 2 h after breakfast
  mean change value of 2h postprandial blood glucose concentration compared with baseline: -0.54 ± 2.47 mmol/L
[1]; 100 mg once daily, day 7, 2 h after lunch
  mean change value of 2h postprandial blood glucose concentration compared with baseline: -0.61 ± 2.16 mmol/L
[1]; 100 mg once daily, day 7, 2 h after supper
  mean change value of 2h postprandial blood glucose concentration compared with baseline: 1.64 ± 3.22 mmol/L
[1]; 100 mg once daily, day 14
  change of FPG relative to baseline (day -2): 0.43 mmol/L
  change of GA relative to baseline (day -2): -1.70%
  decrease of HbA1c compared with baseline: 0.35%
[1]; 100 mg once daily, day 14, 2 h after lunch
  mean change value of 2h postprandial blood glucose concentration compared with baseline: 1.16 ± 2.05 mmol/L
[1]; 100 mg once daily, day 14, 2 h after supper
  mean change value of 2h postprandial blood glucose concentration compared with baseline: 2.56 ± 2.48 mmol/L
[2]; 50 mg
  accumulation ratios of Rmax and AUEC0-24 h for plasma active GLP-1: about 1.0
[2]; 100 mg
  accumulation ratios of Rmax and AUEC0-24 h for plasma active GLP-1: about 1.0
[3]; 50 mg once daily
  accumulation ratio of AUEC0-24h of DPP-4 inhibition: ~1
[3]; 50 mg oral once daily, day 14
  DPP-4 inhibition AUEC0-24h: 2010 ± 54.1 h*%
  DPP-4 inhibition Rmax,ss: 89.47 ± 1.12%
  DPP-4 inhibition Rmin,ss: 77.24 ± 4.52%
  DUR80% (duration for DPP-4 inhibition rate of >80%): 21.9 ± 7.05 h
  E24h (DPP-4 inhibition at 24 h postdose): 78.43 ± 3.85%
  DPP-4 inhibition TRmax,ss: 2.00 (0.500-6.00) h
[3]; 50 mg oral once daily, day 14, listed as cetagliptin
  DUR80% (duration for DPP-4 inhibition rate of >80%): 21.9 h
[3]; 50 mg oral, day 1
  DPP-4 inhibition AUEC0-24h: 1820 ± 77.9 h*%
  DPP-4 inhibition Rmax: 86.39 ± 1.75%
  DUR80% (duration for DPP-4 inhibition rate of >80%): 8.39 ± 2.37 h
  E24h (DPP-4 inhibition at 24 h postdose): 68.75 ± 4.75%
  DPP-4 inhibition TRmax: 2.00 (0.500-3.00) h
[3]; 50 mg oral, day 1, listed as cetagliptin
  DUR80% (duration for DPP-4 inhibition rate of >80%): 8.39 h
[3]; 100 mg cetagliptin vs 100 mg sitagliptin, multiple administration
  sustained DPP-4 inhibition (≥80%) compared with sitagliptin: much longer
[3]; 100 mg once daily
  accumulation ratio of AUEC0-24h of DPP-4 inhibition: ~1
[3]; 100 mg oral once daily, day 14
  DPP-4 inhibition AUEC0-24h: 2090 ± 24.4 h*%
  DPP-4 inhibition Rmax,ss: 89.99 ± 0.91%
  DPP-4 inhibition Rmin,ss: 84.28 ± 1.61%
  DUR80% (duration for DPP-4 inhibition rate of >80%): 32.3 ± 4.53 h
  E24h (DPP-4 inhibition at 24 h postdose): 83.91 ± 1.39%
  DPP-4 inhibition TRmax,ss: 2.00 (1.00-3.00) h
[3]; 100 mg oral once daily, day 14, listed as cetagliptin
  DUR80% (duration for DPP-4 inhibition rate of >80%): 32.3 h
[3]; 100 mg oral, day 1
  DPP-4 inhibition AUEC0-24h: 2000 ± 41.6 h*%
  DPP-4 inhibition Rmax: 88.78 ± 1.04%
  DUR80% (duration for DPP-4 inhibition rate of >80%): 21.1 ± 3.42 h
  E24h (DPP-4 inhibition at 24 h postdose): 79.75 ± 2.63%
  DPP-4 inhibition TRmax: 1.00 (1.00-3.00) h
[3]; 100 mg oral, day 1, listed as cetagliptin
  DUR80% (duration for DPP-4 inhibition rate of >80%): 21.1 h
[4]
  inhibition of serum DPP-4 activity: ≥ 80%
[5]; cetagliptin 50 or 100 mg, sitagliptin 100 mg, 14 days
  intensity of drug-related adverse events: mild
[5]; [8]
  number of drug-related AEs: 3 AEs
  number of subjects reporting drug-related AEs: 2 subjects
[5]; once daily for 14 days
  serious AEs or withdrawals due to AEs: no serious AEs or withdraws due to AEs
[6]; bootstrap median
  tvEC50 (typical value of concentration for 50% of maximal effect): 5.120
  tvEmax (typical value of maximum pharmacodynamic effects): 91.78
  tvGam (typical value of Hill coefficient): 1.008
[6]; [9]
  tvEC50 (typical value of concentration for 50% of maximal effect): 5.120
  tvEmax (typical value of maximum pharmacodynamic effects): 91.78
  tvGam (typical value of Hill coefficient): 1.008
[7]; [10]
  C-peptide AUEC0-t (OGTT): 4072.02 ± 1174.82
  glucagon AUEC0-t (OGTT): 469.51 ± 189.76
  glucose AUEC0-t (OGTT): 48.65 ± 5.34 mmol·h/L
  insulin AUEC0-t (OGTT): 431.53 ± 271.81
[7]; 50 mg once daily
  change of AUEC0-3 h relative to baseline for C-peptide (OGTT): 1851.30
  change of AUEC0-3 h relative to baseline for glucagon (OGTT): -72.70
  change of AUEC0-3 h relative to baseline for insulin (OGTT): 219.90
  change of AUEC0-3 h relative to baseline for plasma glucose (OGTT): -4.97 mmol·h/L
[7]; [11]
  C-peptide AUEC0-t (OGTT): 6059.64 ± 1263.61
  glucagon AUEC0-t (OGTT): 503.79 ± 161.61
  glucose AUEC0-t (OGTT): 40.59 ± 2.87 mmol·h/L
  insulin AUEC0-t (OGTT): 716.44 ± 250.84
[7]; 100 mg once daily
  change of AUEC0-3 h relative to baseline for C-peptide (OGTT): 1761.48
  change of AUEC0-3 h relative to baseline for glucagon (OGTT): -7.21
  change of AUEC0-3 h relative to baseline for insulin (OGTT): 292.18
  change of AUEC0-3 h relative to baseline for plasma glucose (OGTT): -2.76 mmol·h/L
[7]; [12]
  C-peptide AUEC0-t (OGTT): 5923.31 ± 2012.97
  glucagon AUEC0-t (OGTT): 396.81 ± 51.89
  glucose AUEC0-t (OGTT): 43.68 ± 8.04 mmol·h/L
  insulin AUEC0-t (OGTT): 651.43 ± 455.05
[7]; [13]
  C-peptide AUEC0-t (OGTT): 7821.13 ± 2023.09
  glucagon AUEC0-t (OGTT): 496.58 ± 158.93
  glucose AUEC0-t (OGTT): 37.83 ± 5.09 mmol·h/L
  insulin AUEC0-t (OGTT): 1008.62 ± 367.20
